Assay results reported in patent US8754226B2, “Piperidinyl-substituted lactams as GPR119 modulators” (Array BioPharma Inc., priority 2010, dated 2014).

Tested on: modified version of the GPR119 receptor (94% identity to human receptor)
Assay: cAMP production assay (LANCE cAMP kit, TR-FRET) in HEK-293 cells
Type: cell-based
Conditions: for cAMP production in HEK-293 cells: HEK-293 cells stably expressing modified GPR119, test compounds 0.2 nM to 10 μM, one-hour incubation at ambient temperature; for Fold over baseline: increase in cAMP relative to basal levels, agonist activity if 1.5-fold or greater
Outline: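 Doxycycline-induced (1 μg/mL, overnight) HEK-293 cells expressing modified GPR119 were thawed, 2000 cells/well, and exposed to compounds (0.2 nM-10 μM final, 0.5% DMSO) for 1 h at ambient temperature in HBSS/HEPES/BSA. cAMP was measured by LANCE TR-FRET against a standard curve. Agonism was defined as ≥1.5-fold over basal.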

SMILES	cAMP production in HEK-293 cells	Fold over baseline
CCc1cnc(N2CCC(N3CCCC(Nc4ccc(S(C)(=O)=O)cc4F)C3=O)CC2)c(C)c1 (centres unmarked) [Example 77, 1′-(5-ethyl-3-methylpyridin-2-yl)-3-(2-fluoro-4-(methylsulfonyl)phenylamino)-[1,4′-bipiperidin]-2-one]	21.3 nmol	2.5
CCc1cnc(N2CCC(N3CCC[C@H](Nc4cc(F)c(S(C)(=O)=O)cc4F)C3=O)CC2)nc1 [Example 45, (S)-3-(2,5-difluoro-4-(methylsulfonyl)phenylamino)-1′-(5-ethylpyrimidin-2-yl)-[1,4′-bipiperidin]-2-one]	13.3 nmol	2.3
CS(=O)(=O)c1ccc(N[C@H]2CCN(C3CCN(c4ncc(Cl)cc4Cl)CC3)C2=O)c(F)c1 [Example 109, (S)-1-(1-(3,5-dichloropyridin-2-yl)piperidin-4-yl)-3-(2-fluoro-4-(methylsulfonyl)phenyl-amino)pyrrolidin-2-one]	15.8 nmol	2.9
CCc1cnc(N2CCC(N3CCC[C@H](Nc4ccc(S(C)(=O)=O)cc4C(F)(F)F)C3=O)CC2)nc1 [Example 55, (S)-1′-(5-ethylpyrimidin-2-yl)-3-(4-(methylsulfonyl)-2-(trifluoromethyl)phenylamino)-[1,4′-bipiperidin]-2-one]	9.3 nmol	2.6
